≈ marks a conversion by molar mass, not a printed value. Where “and” joins values, the source holds several entries; their conditions need not be identical. Equal values may be shown once.
Columns and labels:
[1] = system: Fusarium strains (Table 18); test: MIC testing (CLSI M38-A2), Table 18; format: cell-based, Fusarium spp.
[2] = system: Fusarium strains (Table 18); test: MFC determination, Table 18; format: cell-based, Fusarium spp.
Candida albicans SC5314 = test: Disseminated candidiasis in immunocompromised murine model (BALB/c mice): tissue fungal burden; format: in vivo; conditions: Experiment I; 6 mg/kg i.v., 7 days
[3] = system: individual Aspergillus spp. (Table 13, species not given); test: MFC determination, Table 13; format: cell-based; conditions: Aspergillus sp. of Table 13
C. parapsilosis = test: MFC determination; format: cell-based
Cr. neoformans strains = test: MIC testing (CLSI M27-A3, YNB, 72 h); format: cell-based, Cryptococcus neoformans
C. krusei strains [4] = test: MIC testing (CLSI M27-A3); format: cell-based
C. albicans SC5314 = test: In vitro activity (MIC) against the infecting strain, Example 18; format: cell-based, Candida albicans; conditions: Candida albicans, read-out: MIC
Penicillium strains [5] = test: MFC determination; format: cell-based, Penicillium spp.
[6] = system: all Aspergillus strains tested; test: MFC determination, summary; format: cell-based
C. krusei strains [7] = test: MFC determination; format: cell-based
[8] = system: individual Aspergillus spp. (Table 15, species not named); test: MIC testing (CLSI M38-A2), Table 15; format: cell-based; conditions: Aspergillus sp. of Table 15, caspofungin read as MEC
Candida albicans [9] = test: MFC determination; format: cell-based
Candida albicans [10] = test: MIC testing (CLSI M27-A3); format: cell-based; design: MIC: unit not given beside the values
[11] = system: individual Aspergillus spp. (Table 15, species not named); test: MFC determination, Table 15; format: cell-based; conditions: Aspergillus sp. of Table 15
Penicillium strains [12] = test: MIC testing (CLSI M38-A2); format: cell-based, Penicillium spp.; conditions: Penicillium
all Candida strains = test: MFC determination, summary; format: cell-based
[13] = system: individual Aspergillus spp. (Table 14, species not named); test: MIC testing (CLSI M38-A2), Table 14; format: cell-based; conditions: Aspergillus sp. of Table 14, caspofungin read as MEC
[14] = individual C. krusei strain with elevated MICs to non-polyene comparators (Table 22)
[15] = individual C. albicans strain with elevated MICs to non-polyene comparators (Table 22), listed as Flu

OC(Cn1cncn1)(Cn1cncn1)c1ccc(F)cc1F [Fluconazole, fluconazole]
MIC Range ([1]; in µg/mL): >32
MIC50 ([1]; inhibits 50% of strains): > 32 µg/mL
MIC90 ([1]; inhibits 90% of strains): > 32 µg/mL
MFC Range [2]: > 32 µg/mL
MFC50 ([2]; kills 50% of strains): > 32 µg/mL
MFC90 ([2]; kills 90% of strains): > 32 µg/mL
Brain tissue fungal burden, Mean log CFUs ± the standard deviation (Candida albicans SC5314): 1.28 ± 1.95 log CFUs
Kidney tissue fungal burden, Mean log CFUs ± the standard deviation (Candida albicans SC5314): 3.87 ± 1.53 log CFUs
MFC Range [3]: 64 µg/mL (≈ 209 µM)
MFC50 ([3]; kills 50% of strains): 64 µg/mL (≈ 209 µM)
MFC90 ([3]; kills 90% of strains): 64 µg/mL (≈ 209 µM)
MFC Range (C. parapsilosis; C. parapsilosis strains, in µg/mL): >64
MFC50 (C. parapsilosis; C. parapsilosis, kills 50% of strains): > 64 µg/mL
MFC90 (C. parapsilosis; C. parapsilosis, kills 90% of strains): > 64 µg/mL
MFC (C. parapsilosis; individual C. parapsilosis strain with elevated MICs to non-polyene comparators (Table 22), in µg/mL): >64
MIC Range (Cr. neoformans strains; Cr. neoformans strains, 72 h, in µg/mL): <0.06-16
MIC50 (Cr. neoformans strains; Cr. neoformans, inhibits 50% of strains): 2 µg/mL (≈ 6.53 µM)
MIC90 (Cr. neoformans strains; Cr. neoformans, inhibits 90% of strains): 8 µg/mL (≈ 26.1 µM)
MIC Range (C. krusei strains [4]; C. krusei strains, in µg/mL): 2-32
MIC50 (C. krusei strains [4]; C. krusei, inhibits 50% of strains): 16 µg/mL (≈ 52.2 µM)
MIC90 (C. krusei strains [4]; C. krusei, inhibits 90% of strains): 32 µg/mL (≈ 104 µM)
MIC (C. krusei strains [4]; [14]): 16 µg/mL (≈ 52.2 µM)
MIC (C. albicans SC5314): 0.25 µg/mL (≈ 0.816 µM)
MFC50 (Penicillium strains [5]; kills 50% of strains): > 64 µg/mL
MFC90 (Penicillium strains [5]; kills 90% of strains): > 64 µg/mL
MFC Range [6]: > 64 µg/mL
MFC50 ([6]; kills 50% of strains): > 64 µg/mL
MFC90 ([6]; kills 90% of strains): > 64 µg/mL
MFC Range (C. krusei strains [7]; C. krusei strains, in µg/mL): >64
MFC50 (C. krusei strains [7]; C. krusei, kills 50% of strains): > 64 µg/mL
MFC90 (C. krusei strains [7]; C. krusei, kills 90% of strains): > 64 µg/mL
MFC (C. krusei strains [7]; [14]): > 64 µg/mL
MIC50 ([8]; inhibits 50% of strains): 64 µg/mL (≈ 209 µM)
MIC90 ([8]; inhibits 90% of strains): > 64 µg/mL
MFC Range (Candida albicans [9]; Fluconazole-resistant C. albicans n = 7, in µg/mL): >32
MFC50 (Candida albicans [9]; Fluconazole-susceptible C. albicans n = 13, kills 50% of strains): > 32 µg/mL
MFC90 (Candida albicans [9]; Fluconazole-susceptible C. albicans n = 13, kills 90% of strains): > 32 µg/mL
MFC (Candida albicans [9]; [15]): >32 (6×) and >64
MIC Range (Candida albicans [10]; Fluconazole-susceptible C. albicans n = 13, in µg/mL): 0.125-0.5
MIC50 (Candida albicans [10]; Fluconazole-susceptible C. albicans n = 13, inhibits 50% of strains): 0.25 µg/mL (≈ 0.816 µM)
MIC90 (Candida albicans [10]; Fluconazole-susceptible C. albicans n = 13, inhibits 90% of strains): 0.25 µg/mL (≈ 0.816 µM)
MIC (Candida albicans [10]; [15]): 32 (2×) and >32 (4×) and >64
MFC Range [11]: > 64 µg/mL
MFC50 ([11]; kills 50% of strains): > 64 µg/mL
MFC90 ([11]; kills 90% of strains): > 64 µg/mL
MIC50 (Penicillium strains [12]; inhibits 50% of strains): > 64 µg/mL
MIC90 (Penicillium strains [12]; inhibits 90% of strains): > 64 µg/mL
MFC50 (all Candida strains; kills 50% of strains): > 32 µg/mL
MFC90 (all Candida strains; kills 90% of strains): > 32 µg/mL
MIC50 ([13]; inhibits 50% of strains): > 64 µg/mL
MIC90 ([13]; inhibits 90% of strains): > 64 µg/mL

From patent publication US20230138395A1, “PHARMACEUTICAL COMPOSITIONS OF A THERAPEUTIC POLYENE MACROLIDE AND METHODS OF THEIR USE” (priority 2020, published 2023)
